From PubChem BioAssay (NCI)
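Dose response: 5 concentrations. Exposure: 48 h. Format: 96-well plates. Endpoint: linear interpolation; highest concentration if not reached. Definition used: TGI = concentration required for complete inhibition of growth.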

What was measured:
Experiment in all cases: DTP human tumour cell line panel, 48 h
UACC-257 melanoma = test system: UACC-257 melanoma
MALME-3M melanoma = test system: MALME-3M melanoma
HOP-92 NSCLC = test system: HOP-92 NSCLC
NCI/ADR-RES ovarian = test system: NCI/ADR-RES ovarian
IGROV1 ovarian = test system: IGROV1 ovarian
MCF7 breast = test system: MCF7 breast
NCI-H522 lung = test system: NCI-H522 lung
NCI-H460 lung = test system: NCI-H460 lung
ACHN renal = test system: ACHN renal
RXF 393 renal = test system: RXF 393 renal
OVCAR-3 ovarian = test system: OVCAR-3 ovarian
RPMI-8226 leukemia = test system: RPMI-8226 leukemia
A498 renal = test system: A498 renal
UO-31 renal = test system: UO-31 renal
K-562 leukemia = test system: K-562 leukemia
A549 NSCLC = test system: A549 NSCLC
786-0 renal = test system: 786-0 renal
BT-549 breast = test system: BT-549 breast
SK-MEL-28 melanoma = test system: SK-MEL-28 melanoma
SNB-75 CNS = test system: SNB-75 CNS
CAKI-1 renal = test system: CAKI-1 renal
HS 578T breast = test system: HS 578T breast
OVCAR-5 ovarian = test system: OVCAR-5 ovarian
OVCAR-8 ovarian = test system: OVCAR-8 ovarian
UACC-62 melanoma = test system: UACC-62 melanoma
SN12C renal = test system: SN12C renal
MOLT-4 leukemia = test system: MOLT-4 leukemia
MDA-MB-231 breast = test system: MDA-MB-231 breast
LOX IMVI melanoma = test system: LOX IMVI melanoma
HT29 colon = test system: HT29 colon
MDA-N = test system: MDA-N
EKVX NSCLC = test system: EKVX NSCLC
COLO 205 colon = test system: COLO 205 colon
SF-268 CNS = test system: SF-268 CNS
M14 melanoma = test system: M14 melanoma
PC-3 prostate = test system: PC-3 prostate
SK-MEL-5 melanoma = test system: SK-MEL-5 melanoma
HOP-62 NSCLC = test system: HOP-62 NSCLC
DU-145 prostate = test system: DU-145 prostate
HCT-15 colon = test system: HCT-15 colon
U251 CNS = test system: U251 CNS
HCT-116 colon = test system: HCT-116 colon
SF-295 CNS = test system: SF-295 CNS
SNB-19 CNS = test system: SNB-19 CNS
SK-MEL-2 melanoma = test system: SK-MEL-2 melanoma
SR leukemia = test system: SR leukemia
KM12 colon = test system: KM12 colon
NCI-H226 lung = test system: NCI-H226 lung
OVCAR-4 ovarian = test system: OVCAR-4 ovarian
T-47D breast = test system: T-47D breast
TK-10 renal = test system: TK-10 renal
MDA-MB-435 = test system: MDA-MB-435

In the case of `NCCCN1CCN(c2ccccc2)CC1`, the TGI (UACC-257 melanoma) is reported as > 100 µM, the TGI (MALME-3M melanoma) is reported as > 100 µM and the TGI (HOP-92 NSCLC) is reported as > 100 µM. For the same compound, the TGI (NCI/ADR-RES ovarian) was > 100 µM, the TGI (IGROV1 ovarian) was > 100 µM and the TGI (MCF7 breast) was > 100 µM. The TGI (NCI-H522 lung) was > 100 µM, the TGI (NCI-H460 lung) was > 100 µM and the TGI (ACHN renal) was > 100 µM. For the same compound, the TGI (RXF 393 renal) was > 100 µM, the TGI (OVCAR-3 ovarian) was 87.7 µM and the TGI (RPMI-8226 leukemia) was > 100 µM. The TGI (A498 renal) was > 100 µM, the TGI (UO-31 renal) was > 100 µM and the TGI (K-562 leukemia) was > 100 µM. For the same compound, the TGI (A549 NSCLC) was > 100 µM, the TGI (786-0 renal) was > 100 µM and the TGI (BT-549 breast) was > 100 µM. For the same compound, the TGI (SK-MEL-28 melanoma) was > 100 µM, the TGI (SNB-75 CNS) was > 100 µM and the TGI (CAKI-1 renal) was > 100 µM. The TGI (HS 578T breast) was > 100 µM, the TGI (OVCAR-5 ovarian) was > 100 µM and the TGI (OVCAR-8 ovarian) was > 100 µM. The TGI (UACC-62 melanoma) was > 100 µM, the TGI (SN12C renal) was > 100 µM and the TGI (MOLT-4 leukemia) was > 100 µM. The TGI (MDA-MB-231 breast) was > 100 µM, the TGI (LOX IMVI melanoma) was > 100 µM and the TGI (HT29 colon) was > 100 µM. For the same compound, the TGI (MDA-N) was > 100 µM, the TGI (EKVX NSCLC) was > 100 µM and the TGI (COLO 205 colon) was > 100 µM. The TGI (SF-268 CNS) was > 100 µM, the TGI (M14 melanoma) was > 100 µM and the TGI (PC-3 prostate) was > 100 µM. For the same compound, the TGI (SK-MEL-5 melanoma) was > 100 µM, the TGI (HOP-62 NSCLC) was > 100 µM and the TGI (DU-145 prostate) was > 100 µM. The TGI (HCT-15 colon) was > 100 µM, the TGI (U251 CNS) was > 100 µM and the TGI (HCT-116 colon) was > 100 µM. For the same compound, the TGI (SF-295 CNS) was > 100 µM, the TGI (SNB-19 CNS) was > 100 µM and the TGI (SK-MEL-2 melanoma) was > 100 µM. The TGI (SR leukemia) was > 100 µM, the TGI (KM12 colon) was > 100 µM and the TGI (NCI-H226 lung) was > 100 µM. For the same compound, the TGI (OVCAR-4 ovarian) was > 100 µM, the TGI (T-47D breast) was > 100 µM and the TGI (TK-10 renal) was > 100 µM. The TGI (MDA-MB-435) was > 100 µM.
